Reference: patent publication US20050203156A1, “Hydantoins having RNase modulatory activity” (Wyeth, priority 2004, published 2005)

Tests used:
[1] = target: T1, HIV reverse transcriptase (RNase H activity) (Human immunodeficiency virus type 1 group M subtype B, UniProt P04585); assay: Inhibition of RNase H / HIV reverse transcriptase (fluorescent probe-target hybrid assay); type: biochemical; conditions: Table I
T1 construct: HIV reverse transcriptase has an RNase H domain at the C-terminus of its p66 subunit
Text: RNase H is an enzyme responsible for the removal of RNA primers from leading and lagging strands during DNA synthesis. It is an important enzyme for the replication of bacterial, viral and human genomes. HIV reverse transcriptase has an RNase H domain at the C-terminus of its p66 subunit. […] The ability of the compounds of the present invention to inhibit RNase H, and more particularly HIV reverse transcriptase, may be measured or determined by any means known in the art.
Preferably, the RNase H/HIV reverse transcriptase modulatory activity of the compounds of the present invention may be determined by the methods described in a copending U.S. provisional patent Application No. 60/436,125, filed Dec. 19, 2002 and PCT Publication No. WO 2004/059012, filed Dec. 22, 2003, published Jul. 15, 2004, entitled ASSAY FOR RNase ACTIVITY of Olson et al., incorporated herein by reference in their entirety. Specifically, the modulatory activity of a hydantoin derivative of the present invention may be determined by hybridizing a target nucleic acid to a fluorescently labeled oligonucleotide probe complementary to the target nucleic acid and containing a fluorophor at one terminus and a quenching group at the other terminus to obtain a probe-target hybrid, wherein (i) the unhybridized probe adopts a conformation that places the fluorophor and quencher in such proximity that the quencher quenches the fluorescent signal of the fluorophor, and (ii) the formation of the probe-target hybrid causes sufficient separation of the fluorophor and quencher to reduce quenching of the fluorescent signal of the fluorophor. Next, a first and second sample containing the probe-target hybrid are prepared. The probe-target hybrid of the first sample is then contacted with an RNase H enzyme (such as HIV reverse transcriptase) in an amount sufficient to selectively cleave the target nucleic acid and thereby release the intact probe. The probe-target hybrid of the second sample is also contacted with the RNase H enzyme in an amount sufficient to selectively cleave the target nucleic acid and thereby release the intact probe in the presence of a hydantoin derivative of the present invention. The release of the probe in each sample may then be detected by measuring the […] in the fluorescent signal of the fluorophor as compared to the signal of the probe-target hybrid. A comparison of the rate of the decrease in the fluorescent signal of the fluorophor in the two samples is made to determine whether there is a difference in the rate of the decrease in the two samples. […] This method is also useful to identify hydantoin derivatives of the present invention, wherein candidate hydantoin derivatives are screened for their ability to modulate RNase/HIV reverse transcriptase activity.

[2] = target: T2, HIV reverse transcriptase (RDDP polymerase activity) (Human immunodeficiency virus type 1 group M subtype B, UniProt P04585); assay: RNA dependent DNA polymerase (RDDP) activity of HIV RT, polyrA-oligodT12-18 / 33P TTP incorporation; type: biochemical
T2 construct: HIV Reverse transcriptase (RT) 66/p51; purchased Worthington

| SMILES | IC50 [1] [µM] | IC50 [2] [µM] |
| --- | --- | --- |
| O=C(c1ccccc1)N1C(=O)N2CCc3ccccc3C2(c2ccccc2)C1=O (stereo not shown) [2-benzoyl-10b-phenyl-6,10b-dihydro-5H-imidazo[5,1-a]isoquinoline-1,3-dione] | 63 | – |
| O=C1NC(c2ccccc2)(c2ccccc2)C(=O)N1CCCBr [3-(3-bromopropyl)-5,5-diphenyl-2,4-imidazolidinedione] | 56 | > 146 |
| Cc1cc(C(=O)N2C(=O)NC(C)(c3ccccc3)C2=O)ccc1Cl (stereo not shown) [3-(4-chloro-3-methylbenzoyl)-5-methyl-5-phenylimidazolidine-2,4-dione] | 100 | – |
| Cc1ccc(C(=O)C(C)N2C(=O)NC(C)(c3ccccc3)C2=O)cc1Cl (stereo not shown) [3-[2-(3-chloro-4-methylphenyl)-1-methyl-2-oxoethyl]-5-methyl-5-phenyl-2,4-imidazolidinedione] | 51 | > 103 |
| CC1(c2ccccc2)NC(=O)N(C(=O)/C=C/c2ccc(Cl)c(Cl)c2)C1=O (stereo not shown) [3-[(2E)-3-(3,4-dichlorophenyl)prop-2-enoyl]-5-methyl-5-phenylimidazolidine-2,4-dione] | 52 | > 107 |
| CC1(c2ccccc2)NC(=O)N(C(=O)/C=C/c2ccc(F)c(C(F)(F)F)c2)C1=O (stereo not shown) [3-{(2E)-3-[4-fluoro-3-(trifluoromethyl)phenyl]prop-2-enoyl}-5-methyl-5-phenylimidazolidine-2,4-dione] | 99 | > 115 |
| CCC1(c2ccc(C)cc2)N=C(O)N=C1O (stereo not shown) [4-ethyl-4-(4-methylphenyl)-4H-imidazole-2,5-diol] | 4 | > 184 |
| C=CN1C(=O)NC(C)(C)C1=O [5,5-dimethyl-3-vinyl-imidazolidine-2,4-dione] | 50 | > 107 |
| O=C1NC(=O)C(=Cc2cc(Cl)cc(Cl)c2O)N1 [5-(3,5-Dichloro-2-hydroxy-benzylidene)-imidazolidine-2,4-dione] | 57 | > 102 |
| O=C1NC(=O)C(=Cc2cc(Br)cc(Br)c2O)N1 [5-(3,5-dibromo-2-hydroxy-benzylidene)-imidazolidine-2,4-dione] | 13 | > 111 |
| CCC1(c2ccc(Br)cc2)NC(=O)NC1=O (stereo not shown) [5-(4-bromo-phenyl)-5-ethyl-imidazolidine-2,4-dione] | 64 | – |
| Cc1ccc(C2(C3CC3)NC(=O)NC2=O)cc1C (stereo not shown) [5-cyclopropyl-5-(3,4-dimethyl-phenyl)-2,4-imidazolidinedione] | 41 | > 122 |
| CC1(c2ccccc2)NC(=O)N(C(=O)/C=C/c2ccccc2)C1=O (stereo not shown) [5-methyl-5-phenyl-3-[(2E)-3-phenylprop-2-enoyl]imidazolidine-2,4-dione] | 46 | > 260 |
| CC1(C)SC2C(NC(=O)C(NC(=O)CN3C(=O)NC(c4ccccc4)(c4ccccc4)C3=O)c3ccccc3)C(=O)N2C1C(=O)O (stereo not shown) [6-[{[{(2,5-dioso-4,4-diphenylimidazolidin-1-yl)acetyl]amino}(phenyl)acetyl]amino}-3,3-dimethyl-7-oxo-4-thia-1-azabicyclo[3.2.0]heptane-2-carboxylic acid] | 4 | > 62 |
| C[C@]1(c2ccccc2)NC(=O)N(C(=O)/C=C/c2ccc(C(F)(F)F)cc2)C1=O [(5R)-5-methyl-5-phenyl-3-{(2E)-3-[4(trifluoromethyl)phenyl]prop-2-enoyl]imidizolidine-2,4-dione] | 58 | > 105 |
| CC[C@@]1(c2ccc(C)cc2)NC(=O)NC1=O [(5S)-5-ethyl-5-(4-methylphenyl)imidazolidine-2,4-dione] | 2 | > 180 |
| C[C@@]1(c2ccccc2)NC(=O)N(C(=O)/C=C/c2ccc(C(F)(F)F)cc2)C1=O [(5S)-5-methyl-5-phenyl-3-{(2E)-3-[4-(trifluoromethyl)phenyl]prop-2-enoyl}imidazolidine-2,4-dione] | 98 | > 100 |
| Cc1cn([C@H]2C[C@H](N=[N+]=[N-])[C@@H](CO)O2)c(=O)[nH]c1=O [AZT, reference compound] | – | < 0.2 |
| CC(C)(C)OC(=O)N1C(=O)N(C(=O)OC(C)(C)C)C2(CCN(Cc3ccccc3)CC2)C1=O [di(tert-butyl) 8-benzyl-2,4-dioxo-1,3,8-triazaspiro[4.5}decane-1,3-dicarboxylate] | 87 | > 103 |
